Laboratory results: article PMC7226045, “Ensartinib (X-396) Effectively Modulates Pharmacokinetic Resistance Mediated by ABCB1 and ABCG2 Drug Efflux Transporters and CYP3A4 Biotransformation Enzyme” (Cancers, 2020)

Assays:
ABCG2 [1] = target: T1, ABCG2 (Homo sapiens, UniProt Q9UNQ0); assay: hoechst 33342 accumulation assay in MDCKII-ABCG2 cells; assay type: cell-based; conditions: read-out: IC50, inhibition of ABCG2 (hoechst 33342 accumulation)
T1 construct: expressed in transfected cells; host or cells: MDCKII-ABCG2 (from Dr. Alfred Schinkel, The Netherlands Cancer Institute)
T1 sequence (Q9UNQ0 1-655): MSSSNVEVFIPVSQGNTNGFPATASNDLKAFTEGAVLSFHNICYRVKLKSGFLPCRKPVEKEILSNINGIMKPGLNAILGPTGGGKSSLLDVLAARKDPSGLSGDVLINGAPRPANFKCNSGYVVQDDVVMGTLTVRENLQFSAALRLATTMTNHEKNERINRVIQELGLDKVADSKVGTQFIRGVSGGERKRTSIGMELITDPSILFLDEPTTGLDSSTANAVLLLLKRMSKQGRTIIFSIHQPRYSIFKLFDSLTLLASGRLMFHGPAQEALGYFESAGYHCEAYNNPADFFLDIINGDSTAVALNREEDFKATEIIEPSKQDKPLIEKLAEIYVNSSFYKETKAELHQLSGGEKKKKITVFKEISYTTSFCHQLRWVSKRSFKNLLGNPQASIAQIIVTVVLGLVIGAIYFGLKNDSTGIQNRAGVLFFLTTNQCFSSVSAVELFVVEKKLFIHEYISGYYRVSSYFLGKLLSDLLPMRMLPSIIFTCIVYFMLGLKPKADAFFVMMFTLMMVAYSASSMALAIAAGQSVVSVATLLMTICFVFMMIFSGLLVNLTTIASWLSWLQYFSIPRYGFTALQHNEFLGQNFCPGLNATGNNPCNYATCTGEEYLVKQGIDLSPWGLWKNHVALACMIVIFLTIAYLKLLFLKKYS
Experimental: Cellular accumulation assay with hoechst 33342 and calcein AM was performed as described previously. Briefly, MDCKII-par, MDCKII-ABCB1, MDCKII-ABCG2, and MDCKII-ABCC1 cells were seeded at densities of 5.0 × 10^4, 5.0 × 10^4, 5.5 × 10^4, and 6.0 × 10^4 cells/well, respectively, on a transparent 96-well plate and grown to full confluence for 24 h under standard conditions. The cells were then washed twice with 1 × PBS, after which was added either a dilution of ensartinib in Opti-MEM (1, 5, 10, 25, or 50 µM) or a specific inhibitor to act as a positive control (1 µM LY335979, 1 µM Ko143, or 25 µM MK-571 for ABCB1, ABCG2, or ABCC1, respectively). Cells were pre-incubated for 10 min, then 8 µM hoechst 33342 (a model substrate for ABCB1 and ABCG2) or 2 µM calcein AM (ABCC1 substrate) diluted in Opti-MEM was quickly added to all wells other than those containing blank samples. The intracellular levels of the substrates were then determined at 1 min intervals for 30 min using a microplate reader (Infinite M200 Pro, Tecan, Männedorf, Switzerland). Fluorescence was monitored in bottom mode using excitation/emission wavelengths of 350/465 and 485/535 nm for hoechst 33342 and calcein AM, respectively.

MDCKII-ABCC1 cells = assay: MTT proliferation assay, MDCKII-ABCC1; assay type: cell-based, canine; conditions: Canis lupus familiaris, 48 h, read-out: IC50, sensitivity to ensartinib
Experimental: MTT proliferation assay was performed as described previously.

ABCG2 [2] = target: T1, ABCG2; assay: MDCKII monolayer transport assay, MDCKII-ABCG2; assay type: in vitro ADME; conditions: dog, 1 µM ensartinib, read-out: transport ratio (r), BA/AB
Experimental: Transport assays were performed on microporous polycarbonate membrane filters (3 µm pore size, 24 mm diameter, Transwell 3414; Costar, Corning, NY, USA) using MDCKII parental as well as ABCB1-, ABCG2-, and ABCC1-overexpressing MDCKII cells. The cells were seeded at a density of 1.5 × 10^6 cells per insert and cultured to full confluence for 7 days with media exchanges on the second and fourth days. Before the start of the transport experiments, inserts were washed with 1 × PBS on both the apical and basal sides. The cells were then preincubated in Opti-MEM with or without model inhibitors (1 µM LY335979, 1 µM Ko143, or 25 µM MK-571). […] Ensartinib levels in samples were measured by UHPLC-MS/MS (see below). […]
Samples from the monolayer transport assays (10 µL) were mixed with 100 µL of acetonitrile and 100 µL of methanol, vortexed for 15 min, and centrifuged at 14,500 rpm for 3 min. […] The MS source parameters were set to the following: drying gas, 320 °C, flow rate 10 l/min; sheath gas, 400 °C at 12 l/min; nebulizer pressure 25 psi; capillary voltage 4000 V; nozzle voltage 0 V. Transitions of [M+H]^+ ions were detected using a dwell time of 150 ms, a cell acceleration of 4 V, and fragmentor voltages of 137 V for 547→357, 257 and 120 transitions (corresponding to collision energies of 16, 32, and 56 V).

- IC50 (ABCG2 [1]): 9.13 µM
- efflux ratio at 4 h, 1 µM (ABCG2 [2]): 1.15
Structure (SMILES): C[C@@H]1CN(C(=O)c2ccc(NC(=O)c3cc(O[C@H](C)c4c(Cl)ccc(F)c4Cl)c(N)nn3)cc2)C[C@H](C)N1 [ensartinib, Ensartinib]
- IC50 (MDCKII-ABCC1 cells): 21.9 µM
